Measured values taken from patent US7279293B2 (priority 2002, dated 2007).
Entries after “also recorded” stand apart in the source; their conditions may differ.

What was measured:
Type in all cases: cell-based
[1] = test system: wild type mouse H3 receptor and mouse H3 receptor mutants MT1, MT2, MT3, MT5, MT6; settings: 10 μM forskolin
Method: (§1) Wild type mouse H3 receptor cDNA and the five mouse H3 receptor mutant cDNAs were each transfected into cell line HEK293, and screened with G418 to obtain their respective stable clones. Northern analysis was used to check expression levels, and stable clones with roughly equal expression levels were used in the experiment.
(§2) Since H3 receptors are Gi-binding-type G protein-coupled receptors, cAMP levels were measured using ELISA. More specifically, 10^5 cells per well were cultured in a 24-well plate the day before testing. On the day of the test, cells were cultured for 15 minutes in the absence of serum, and then treated for 15 minutes with 0.5 mM IBMX. Forskolin (10 μM), histamine (10^−11 M to 10^−6 M) and thioperamide (10^−10 M to 10^−5 M) were respectively added, and the cells were treated for 15 minutes. The cAMP Enzyme Immunoassay (EIA) System (Amersham) was used to measure cAMP. The cells were lysed with 150 μl of lysing reagent 1B, provided with the kit. 5 μl of the cell lysate and rabbit anti-cAMP antibody were reacted by being allowed to stand undisturbed at 4° C. for two hours on an antibody-immobilized plate. Moreover, enzyme-labeled antibody was added and reacted by being allowed to stand undisturbed at 4° C. for one hour. The plate was washed with buffer, and enzyme substrate solution was then added and reacted by being allowed to stand undisturbed at room temperature for about 30 minutes. The reaction was stopped with 1 N sulfuric acid, and optical absorbance was then measured. A standard curve was produced from the optical absorbances of standard cAMP solutions, and cAMP levels were determined.

[2] = target: T1, wild type mouse H3 receptor and mouse H3 receptor mutants MT1, MT2, MT3, MT5, MT6 (Mus musculus, UniProt P58406, A357K)
T1 construct: expressed in transfected cells
T1 sequence (P58406 whole entry A357K): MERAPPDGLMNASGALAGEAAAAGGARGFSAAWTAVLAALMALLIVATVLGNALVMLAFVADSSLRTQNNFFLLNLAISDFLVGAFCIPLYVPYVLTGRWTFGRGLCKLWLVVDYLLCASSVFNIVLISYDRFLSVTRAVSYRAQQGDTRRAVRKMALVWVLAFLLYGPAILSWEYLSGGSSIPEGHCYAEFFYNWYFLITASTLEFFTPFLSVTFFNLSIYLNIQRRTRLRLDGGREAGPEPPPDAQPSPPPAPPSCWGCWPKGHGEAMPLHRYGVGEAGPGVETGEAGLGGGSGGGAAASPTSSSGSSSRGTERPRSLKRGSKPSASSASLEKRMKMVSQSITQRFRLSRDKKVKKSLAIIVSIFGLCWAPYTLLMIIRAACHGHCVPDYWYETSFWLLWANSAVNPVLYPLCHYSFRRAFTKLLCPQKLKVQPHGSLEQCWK
Method: as §1, §2

[3] = target: T2, MT6 clone (constitutively active mouse H3 receptor mutant) (Mus musculus, UniProt P58406, A357K); test: cAMP levels by ELISA (cAMP EIA) in the HEK293 MT6 clone, with 10 μM forskolin; settings: thioperamide with 10 μM forskolin; MT6 clone versus wild type H3
T2 construct: expressed in transfected cells
T2 sequence (P58406 whole entry A357K): as above
Method: as §1
as §2, with “Moreover, enzyme-labeled antibody was added and reacted by being allowed to stand undisturbed at 4° C. for one hour. The plate was washed with buffer, and enzyme substrate solution was then added and reacted by being allowed to stand undisturbed at room temperature for about 30 minutes.” left out

Compound: NCCc1c[nH]cn1 [histamine]
- change in cAMP levels caused by histamine ([1]; all clones, histamine 10^-11 M to 10^-6 M, 15 minutes, FIG. 4): decrease in a histamine dose-dependent manner; also recorded: decreased histamine dose-dependently

Compound: S=C(NC1CCCCC1)N1CCC(c2cnc[nH]2)CC1 [thioperamide]
- change in cAMP levels caused by thioperamide [2]: increase with increased doses of thioperamide; also recorded: increase cAMP levels dose-dependently
- cAMP increase in MT6 clone compared to the wild type [3]: about five-fold

Compound: pertussis toxin [PTX]
- effect of PTX on the cAMP increases caused by thioperamide ([1]; wild type H3 and MT6 clones, PTX 100 ng/ml for 18 hours): inhibited the increases in cAMP caused by thioperamide
